From ChEMBL document CHEMBL1201862, “PubChem BioAssay data set” (2004) come the findings set out here.

One experiment deals with T1, Aminopeptidase N (Plasmodium falciparum FcB1/Columbia, UniProt O96935).
T1 sequence (O96935 whole entry): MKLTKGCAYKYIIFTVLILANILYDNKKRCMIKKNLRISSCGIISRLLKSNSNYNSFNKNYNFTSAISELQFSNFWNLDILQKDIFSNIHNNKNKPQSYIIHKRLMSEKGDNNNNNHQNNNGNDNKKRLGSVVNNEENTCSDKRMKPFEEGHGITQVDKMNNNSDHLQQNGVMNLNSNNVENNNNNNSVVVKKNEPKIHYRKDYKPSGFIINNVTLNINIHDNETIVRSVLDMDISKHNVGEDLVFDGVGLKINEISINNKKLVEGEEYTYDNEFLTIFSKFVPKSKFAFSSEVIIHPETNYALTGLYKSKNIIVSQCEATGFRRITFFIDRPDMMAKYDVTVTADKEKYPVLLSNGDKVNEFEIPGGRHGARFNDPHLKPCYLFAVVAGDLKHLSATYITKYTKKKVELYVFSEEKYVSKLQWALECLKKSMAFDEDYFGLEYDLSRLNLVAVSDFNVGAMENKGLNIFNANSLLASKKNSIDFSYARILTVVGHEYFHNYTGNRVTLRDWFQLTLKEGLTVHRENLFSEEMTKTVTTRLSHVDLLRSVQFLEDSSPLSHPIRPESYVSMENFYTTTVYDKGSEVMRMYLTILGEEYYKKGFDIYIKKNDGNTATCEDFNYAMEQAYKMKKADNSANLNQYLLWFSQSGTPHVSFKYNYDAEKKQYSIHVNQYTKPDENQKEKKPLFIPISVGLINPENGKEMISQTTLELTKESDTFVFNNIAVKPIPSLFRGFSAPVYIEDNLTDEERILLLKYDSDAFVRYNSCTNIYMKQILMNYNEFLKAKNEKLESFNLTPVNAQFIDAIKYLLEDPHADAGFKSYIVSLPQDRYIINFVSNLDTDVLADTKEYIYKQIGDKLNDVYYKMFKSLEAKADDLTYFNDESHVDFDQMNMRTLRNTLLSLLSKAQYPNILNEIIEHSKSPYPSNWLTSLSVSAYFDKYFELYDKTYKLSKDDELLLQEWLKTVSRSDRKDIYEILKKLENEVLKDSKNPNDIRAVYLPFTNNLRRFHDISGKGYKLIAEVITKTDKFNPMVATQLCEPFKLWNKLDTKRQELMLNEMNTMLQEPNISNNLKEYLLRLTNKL
The experiment is described as follows: P. falciparum M1AAP inhibitors, biochemical, fluorogenic H-Leu-NHMec substrate, 1536-well (AID 1445). Also on record: species or system Plasmodium falciparum 3D7, 3D7.

The target of experiment [1] is T2, RNA-binding protein pos-1 (Caenorhabditis elegans, UniProt G5EF15).
T2 sequence (G5EF15 whole entry): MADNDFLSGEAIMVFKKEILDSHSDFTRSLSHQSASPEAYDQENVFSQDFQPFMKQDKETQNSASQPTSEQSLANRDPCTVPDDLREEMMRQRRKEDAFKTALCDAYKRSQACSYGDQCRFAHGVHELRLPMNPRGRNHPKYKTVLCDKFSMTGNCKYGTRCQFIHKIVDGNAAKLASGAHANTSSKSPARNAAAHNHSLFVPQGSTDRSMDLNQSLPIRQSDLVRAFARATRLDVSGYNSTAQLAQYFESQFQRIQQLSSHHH
The experiment is described as follows: inhibitors of POS-1/mex-3 RNA binding, dose response, biochemical, fluorescence polarization (AID 1964).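 Note: purified POS-1 fused to maltose binding protein made in E. coli; potency of compounds blocking POS-1 binding to fluorescent RNA.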

Experiment [2] addresses T3, SUMO-activating enzyme (Homo sapiens, UniProt Q9UBT2). As to the kind of experiment: SUMOylation inhibitor hit validation, confirmation, SUMOylation inhibitor project, biochemical, AlphaScreen (AID 2018). Format: functional. In general terms: Alpha assays give light when donor and acceptor beads are brought close together.
For experiment [3], the target named is T4, Zinc finger protein mex-5 (Caenorhabditis elegans, UniProt Q9XUB2).
T4 sequence (Q9XUB2 whole entry): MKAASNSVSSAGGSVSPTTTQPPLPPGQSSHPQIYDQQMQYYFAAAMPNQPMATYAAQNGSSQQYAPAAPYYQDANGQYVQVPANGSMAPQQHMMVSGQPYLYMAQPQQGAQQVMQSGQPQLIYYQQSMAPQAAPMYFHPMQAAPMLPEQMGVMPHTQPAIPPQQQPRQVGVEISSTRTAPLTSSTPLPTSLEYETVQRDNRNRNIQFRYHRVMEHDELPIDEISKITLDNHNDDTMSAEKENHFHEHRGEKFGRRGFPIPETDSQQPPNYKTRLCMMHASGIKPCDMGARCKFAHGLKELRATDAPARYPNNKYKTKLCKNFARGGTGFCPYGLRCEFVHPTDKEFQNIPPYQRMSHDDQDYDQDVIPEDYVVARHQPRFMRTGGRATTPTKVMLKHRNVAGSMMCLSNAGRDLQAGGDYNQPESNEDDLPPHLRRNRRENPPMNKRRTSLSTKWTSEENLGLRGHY
The experiment is described as follows: MEX-5/TCR-2 RNA interaction inhibitors, dose response, biochemical, C. elegans, fluorescence polarization (AID 1960). A general note: In fluorescence polarisation assays a small probe gives low polarisation when free and higher when bound to something large.

Experiment [4] addresses T5, Heat shock factor protein 1 (Mus musculus, UniProt P38532).
T5 sequence (P38532 whole entry): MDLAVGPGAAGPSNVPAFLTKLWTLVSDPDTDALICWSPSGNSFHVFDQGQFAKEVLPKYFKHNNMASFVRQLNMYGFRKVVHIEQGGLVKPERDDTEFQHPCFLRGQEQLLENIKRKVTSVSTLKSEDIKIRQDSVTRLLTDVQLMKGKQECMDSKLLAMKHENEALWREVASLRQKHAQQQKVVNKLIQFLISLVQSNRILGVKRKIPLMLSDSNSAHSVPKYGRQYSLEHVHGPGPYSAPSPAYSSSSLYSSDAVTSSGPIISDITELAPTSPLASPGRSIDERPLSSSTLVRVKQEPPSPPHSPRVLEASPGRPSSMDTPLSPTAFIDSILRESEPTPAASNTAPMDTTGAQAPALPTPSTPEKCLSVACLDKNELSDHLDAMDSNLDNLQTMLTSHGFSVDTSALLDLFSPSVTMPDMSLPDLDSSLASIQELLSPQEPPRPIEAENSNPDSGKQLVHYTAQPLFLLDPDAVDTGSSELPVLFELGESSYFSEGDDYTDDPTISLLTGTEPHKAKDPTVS
The experiment is described as follows: inhibition of MG132-induced HSE-luciferase signal, confirmation, cell-based, NIH3T3, luminescence, dose retest (AID 2382).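 Note: NIH3T3 fibroblasts with HSF1-driven luciferase reporter stressed by proteasome inhibitor MG132; luminescence from HSF1-driven luciferase expression after 8 hours of MG132 stress.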 Type of experiment: functional.

In experiment [5] the target is T3, SUMO-activating enzyme. As to the kind of experiment: inhibitors of in vitro SUMOylation cascade, primary screen, biochemical, HTRF, uHTS (AID 2006). Type of experiment: protein-complex assay. In general terms: TR-FRET usually uses a lanthanide donor and a delayed reading to cut background.
A further experiment deals with Nonstructural protein 1 (Influenza A virus, UniProt Q194T2). Type of experiment: functional, Influenza A virus (A/California/07/2009(H1N1)).
Experiment [6] can be described thus: inhibitors of firefly luciferase expression or activity, dose response, H4 neuroglioma cells, luminescence (AID 1990). Type of experiment: functional, cell-based.
Experiment [7] can be described thus: cells. Format: functional, cell-based.
A short description of experiment [8]: Luminescence Cell-Based Dose Response HTS to Identify Inhibitors of 5'UTR Stem-Loop Driven Prion Protein mRNA Translation in H4 Neuroglioblastoma Cells. [Related pubchem assays: 1827 (Project Summary), 1813 (Primary HTS)]. Format: functional.
Experiment [9] can be described thus: inhibitors of SNCA 5'UTR-driven reporter translation, confirmation, H4 neuroglioma cells, luminescence (AID 1988). Type of experiment: functional, cell-based.
The nature of experiment [10]: inhibitors of intracellular T. cruzi replication, confirmation, NIH3T3 host cells, beta-gal luminescence (AID 2044).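 Note: intracellular parasites grown in NIH/3T3 mouse fibroblasts as host cells; luminescent beta-galactosidase reporter signal from transgenic T. cruzi replicating inside host cells; inhibitors lower the luminescence signal.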 Type of experiment: functional, cell-based.
Experiment [11] is described as follows: cells. Type of experiment: functional, cell-based. This is another data set of the same source.
The nature of experiment [12]: cytotoxicity toward NIH3T3 fibroblasts, dose response, counter-screen, cell-based, ATP luminescence, mouse fibroblasts (AID 2010).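 Note: cells exposed to compound for about 90 hours before reading.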 Format: functional.
Experiment [13] in a line: THP-1 cell cytotoxicity, dose response, cytotoxicity control for non-replicating M. tuberculosis project (AID 489025). Format: functional.
A short description of experiment [14]: HepG2 cell cytotoxicity, dose response, cytotoxicity control for non-replicating M. tuberculosis project (AID 489018). Format: functional. To be noted: Mycobacterium tuberculosis.
A short description of experiment [15]: Vero E6 cell cytotoxicity, dose response, cytotoxicity control for non-replicating M. tuberculosis project, secondary assay (AID 492998). Format: functional, VeroE6. The following applies: Vero C1008.
Experiment [16] is described as follows: cells. Type of experiment: functional.
In another experiment the test system is H9c2. As to the kind of experiment: cells. Format: functional, cell-based. To be noted: Rattus norvegicus, H9c2, Myocardium.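 Note: confirmatory concentration-response retest of ultra-high-throughput screening hits for modulation of myocardial damage; cell death induced by hydrogen peroxide oxidative stress; compound pretreatment for 60 min then peroxide exposure for 2 h; potency is for protecting the cells against peroxide damage rather than for killing them.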
A short description of experiment [17]: Shn3 3'UTR reporter inhibitors, dose response, cell-based, Clone20 osteoblasts, firefly luciferase, cherry-picked (AID 624132).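 Note: firefly luciferase luminescence from reporter carrying the Shn3 3'UTR in osteoblasts.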 Format: functional.
Experiment [18] is described as follows: HepG2 cell cytotoxicity, dose response, cytotoxicity control for Shn3 inhibitor project, CellTiter-Glo, cherry-picked (AID 624134). Format: functional, cell-based.
The nature of experiment [19]: control 3'UTR Renilla luciferase suppression, dose response, counter-screen for Shn3 inhibitor project, cell-based, Clone20-Shn3RL, cherry-picked (AID 624133). Format: functional.
Experiment [20] is described as follows: inhibition of K1F phage lysis, E. coli UTI89, bacterial capsule biogenesis inhibitors, alamar blue (AID 488966). Type of experiment: functional.
Experiment [21] has as its target Voltage-dependent T-type calcium channel subunit alpha-1H (Homo sapiens, UniProt O95180). As to the kind of experiment: Cav3.2 T-type channel inhibitors, cell-based, synthetic library set 1, calcium flux (AID 493022). Format: functional.
The subject of experiment [22] is Streptococcus sp. 'group A'. As to the kind of experiment: growth inhibition of control SK(-) GAS strain, dose response, counter-screen for streptokinase expression inhibitor project, luminescence, kanamycin, BacTiterGlo, confirmation (AID 1900). Type of experiment: functional, organism-based.
For another experiment, the system named is Streptococcus. The experiment is described as follows: Group A Streptococcus viability loss, dose response, counter-screen for streptokinase expression inhibitor project, luminescence, BacTiterGlo (AID 1915).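 Note: potency for reduction of bacterial viability or growth.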 Type of experiment: functional, organism-based.
Experiment [23] has as its target C-C chemokine receptor type 6 (Homo sapiens, UniProt P51684). The experiment is described as follows: CCR6 receptor antagonists, dose response, cell-based, luminescent beta-arrestin readout (AID 504728). Format: functional.
The target of the next experiment is Beta-galactosidase (Escherichia coli, UniProt Q8VNN2). The experiment is described as follows: beta-galactosidase enzyme inhibitors and activators, dose response, artefact control for CCR6 antagonist project, biochemical, E. coli enzyme, set 3 (AID 504712). Format: functional.
In another experiment the test system is Vero. The experiment is described as follows: cells. The following applies: Chlorocebus sabaeus. Format: functional.

Molecules are shown by their SMILES. Activity calls are given as the source filed them. A value given as a limit tells only on which side of the number the result lay.

For orientation: IC50 means the concentration that gives 50% inhibition. Broadly, the EC50 is the concentration needed to bring the measured effect to its halfway point. The term CC50 denotes the concentration giving 50% cytotoxicity. The term AC50 denotes the midpoint of the concentration-response curve, whichever way the signal moves.

T3 sequence (Q9UBE0 whole entry): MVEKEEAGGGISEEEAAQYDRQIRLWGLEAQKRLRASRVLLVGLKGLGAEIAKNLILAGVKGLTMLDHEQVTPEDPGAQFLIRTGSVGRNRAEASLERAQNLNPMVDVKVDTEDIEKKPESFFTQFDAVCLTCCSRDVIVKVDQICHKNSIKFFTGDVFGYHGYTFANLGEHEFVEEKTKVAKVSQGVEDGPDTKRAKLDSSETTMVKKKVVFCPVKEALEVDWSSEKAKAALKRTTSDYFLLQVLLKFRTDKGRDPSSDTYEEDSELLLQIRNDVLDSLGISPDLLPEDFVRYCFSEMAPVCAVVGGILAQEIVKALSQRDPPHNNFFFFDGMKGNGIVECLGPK
T3 sequence (Q9UBT2 whole entry): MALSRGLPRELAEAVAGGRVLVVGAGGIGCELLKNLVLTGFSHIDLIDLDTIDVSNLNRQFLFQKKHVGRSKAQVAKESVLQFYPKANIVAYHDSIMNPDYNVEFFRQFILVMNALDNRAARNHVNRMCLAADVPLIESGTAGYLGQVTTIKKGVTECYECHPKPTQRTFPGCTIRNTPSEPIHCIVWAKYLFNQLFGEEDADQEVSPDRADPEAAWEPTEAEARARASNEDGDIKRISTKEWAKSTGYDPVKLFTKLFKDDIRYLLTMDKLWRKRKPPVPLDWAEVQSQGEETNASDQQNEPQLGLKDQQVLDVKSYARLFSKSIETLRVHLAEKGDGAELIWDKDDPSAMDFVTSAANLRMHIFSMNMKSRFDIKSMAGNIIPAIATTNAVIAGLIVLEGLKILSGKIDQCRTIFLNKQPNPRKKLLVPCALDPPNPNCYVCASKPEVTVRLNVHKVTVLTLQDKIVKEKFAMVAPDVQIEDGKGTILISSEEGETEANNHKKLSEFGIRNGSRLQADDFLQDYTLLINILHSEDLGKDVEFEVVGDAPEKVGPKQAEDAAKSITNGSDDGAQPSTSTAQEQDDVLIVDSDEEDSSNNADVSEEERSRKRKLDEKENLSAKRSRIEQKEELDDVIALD
Sequence of Beta-galactosidase (Q8VNN2 whole entry): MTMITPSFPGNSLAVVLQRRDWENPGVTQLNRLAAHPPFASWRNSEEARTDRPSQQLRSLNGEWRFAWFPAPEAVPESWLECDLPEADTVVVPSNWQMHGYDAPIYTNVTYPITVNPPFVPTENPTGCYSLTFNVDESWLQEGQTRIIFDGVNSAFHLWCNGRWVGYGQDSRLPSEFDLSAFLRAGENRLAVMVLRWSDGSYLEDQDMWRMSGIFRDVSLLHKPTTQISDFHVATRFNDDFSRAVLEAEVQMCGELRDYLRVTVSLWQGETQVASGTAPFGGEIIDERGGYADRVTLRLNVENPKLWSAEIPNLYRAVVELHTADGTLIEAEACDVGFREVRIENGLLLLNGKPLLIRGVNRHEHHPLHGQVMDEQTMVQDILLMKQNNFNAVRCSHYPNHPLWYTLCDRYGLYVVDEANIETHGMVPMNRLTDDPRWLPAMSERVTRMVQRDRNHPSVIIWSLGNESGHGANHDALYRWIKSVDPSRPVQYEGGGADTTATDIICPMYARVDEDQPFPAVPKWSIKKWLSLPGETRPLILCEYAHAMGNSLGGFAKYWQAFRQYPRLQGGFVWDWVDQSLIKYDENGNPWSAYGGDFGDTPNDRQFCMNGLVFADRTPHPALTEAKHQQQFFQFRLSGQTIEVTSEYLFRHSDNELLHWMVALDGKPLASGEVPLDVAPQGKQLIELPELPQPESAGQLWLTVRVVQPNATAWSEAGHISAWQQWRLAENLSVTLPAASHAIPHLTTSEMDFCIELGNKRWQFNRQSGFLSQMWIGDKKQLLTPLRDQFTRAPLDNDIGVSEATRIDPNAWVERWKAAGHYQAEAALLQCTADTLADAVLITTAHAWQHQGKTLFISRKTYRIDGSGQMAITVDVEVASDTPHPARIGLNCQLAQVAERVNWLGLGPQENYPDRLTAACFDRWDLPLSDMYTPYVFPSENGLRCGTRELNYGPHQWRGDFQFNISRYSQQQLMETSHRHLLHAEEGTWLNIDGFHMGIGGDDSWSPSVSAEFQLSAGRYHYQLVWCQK
Sequence of C-C chemokine receptor type 6 (P51684 whole entry): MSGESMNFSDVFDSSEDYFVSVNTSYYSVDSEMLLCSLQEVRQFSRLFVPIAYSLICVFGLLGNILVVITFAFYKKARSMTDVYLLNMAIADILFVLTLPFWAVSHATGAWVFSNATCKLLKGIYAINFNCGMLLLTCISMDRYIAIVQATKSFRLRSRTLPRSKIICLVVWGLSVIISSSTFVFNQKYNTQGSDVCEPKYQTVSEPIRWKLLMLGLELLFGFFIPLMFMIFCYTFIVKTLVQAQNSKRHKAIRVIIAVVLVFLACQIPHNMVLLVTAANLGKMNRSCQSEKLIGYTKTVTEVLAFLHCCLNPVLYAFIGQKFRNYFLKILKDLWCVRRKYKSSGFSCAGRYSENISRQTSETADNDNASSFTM
Sequence of Voltage-dependent T-type calcium channel subunit alpha-1H (O95180 whole entry): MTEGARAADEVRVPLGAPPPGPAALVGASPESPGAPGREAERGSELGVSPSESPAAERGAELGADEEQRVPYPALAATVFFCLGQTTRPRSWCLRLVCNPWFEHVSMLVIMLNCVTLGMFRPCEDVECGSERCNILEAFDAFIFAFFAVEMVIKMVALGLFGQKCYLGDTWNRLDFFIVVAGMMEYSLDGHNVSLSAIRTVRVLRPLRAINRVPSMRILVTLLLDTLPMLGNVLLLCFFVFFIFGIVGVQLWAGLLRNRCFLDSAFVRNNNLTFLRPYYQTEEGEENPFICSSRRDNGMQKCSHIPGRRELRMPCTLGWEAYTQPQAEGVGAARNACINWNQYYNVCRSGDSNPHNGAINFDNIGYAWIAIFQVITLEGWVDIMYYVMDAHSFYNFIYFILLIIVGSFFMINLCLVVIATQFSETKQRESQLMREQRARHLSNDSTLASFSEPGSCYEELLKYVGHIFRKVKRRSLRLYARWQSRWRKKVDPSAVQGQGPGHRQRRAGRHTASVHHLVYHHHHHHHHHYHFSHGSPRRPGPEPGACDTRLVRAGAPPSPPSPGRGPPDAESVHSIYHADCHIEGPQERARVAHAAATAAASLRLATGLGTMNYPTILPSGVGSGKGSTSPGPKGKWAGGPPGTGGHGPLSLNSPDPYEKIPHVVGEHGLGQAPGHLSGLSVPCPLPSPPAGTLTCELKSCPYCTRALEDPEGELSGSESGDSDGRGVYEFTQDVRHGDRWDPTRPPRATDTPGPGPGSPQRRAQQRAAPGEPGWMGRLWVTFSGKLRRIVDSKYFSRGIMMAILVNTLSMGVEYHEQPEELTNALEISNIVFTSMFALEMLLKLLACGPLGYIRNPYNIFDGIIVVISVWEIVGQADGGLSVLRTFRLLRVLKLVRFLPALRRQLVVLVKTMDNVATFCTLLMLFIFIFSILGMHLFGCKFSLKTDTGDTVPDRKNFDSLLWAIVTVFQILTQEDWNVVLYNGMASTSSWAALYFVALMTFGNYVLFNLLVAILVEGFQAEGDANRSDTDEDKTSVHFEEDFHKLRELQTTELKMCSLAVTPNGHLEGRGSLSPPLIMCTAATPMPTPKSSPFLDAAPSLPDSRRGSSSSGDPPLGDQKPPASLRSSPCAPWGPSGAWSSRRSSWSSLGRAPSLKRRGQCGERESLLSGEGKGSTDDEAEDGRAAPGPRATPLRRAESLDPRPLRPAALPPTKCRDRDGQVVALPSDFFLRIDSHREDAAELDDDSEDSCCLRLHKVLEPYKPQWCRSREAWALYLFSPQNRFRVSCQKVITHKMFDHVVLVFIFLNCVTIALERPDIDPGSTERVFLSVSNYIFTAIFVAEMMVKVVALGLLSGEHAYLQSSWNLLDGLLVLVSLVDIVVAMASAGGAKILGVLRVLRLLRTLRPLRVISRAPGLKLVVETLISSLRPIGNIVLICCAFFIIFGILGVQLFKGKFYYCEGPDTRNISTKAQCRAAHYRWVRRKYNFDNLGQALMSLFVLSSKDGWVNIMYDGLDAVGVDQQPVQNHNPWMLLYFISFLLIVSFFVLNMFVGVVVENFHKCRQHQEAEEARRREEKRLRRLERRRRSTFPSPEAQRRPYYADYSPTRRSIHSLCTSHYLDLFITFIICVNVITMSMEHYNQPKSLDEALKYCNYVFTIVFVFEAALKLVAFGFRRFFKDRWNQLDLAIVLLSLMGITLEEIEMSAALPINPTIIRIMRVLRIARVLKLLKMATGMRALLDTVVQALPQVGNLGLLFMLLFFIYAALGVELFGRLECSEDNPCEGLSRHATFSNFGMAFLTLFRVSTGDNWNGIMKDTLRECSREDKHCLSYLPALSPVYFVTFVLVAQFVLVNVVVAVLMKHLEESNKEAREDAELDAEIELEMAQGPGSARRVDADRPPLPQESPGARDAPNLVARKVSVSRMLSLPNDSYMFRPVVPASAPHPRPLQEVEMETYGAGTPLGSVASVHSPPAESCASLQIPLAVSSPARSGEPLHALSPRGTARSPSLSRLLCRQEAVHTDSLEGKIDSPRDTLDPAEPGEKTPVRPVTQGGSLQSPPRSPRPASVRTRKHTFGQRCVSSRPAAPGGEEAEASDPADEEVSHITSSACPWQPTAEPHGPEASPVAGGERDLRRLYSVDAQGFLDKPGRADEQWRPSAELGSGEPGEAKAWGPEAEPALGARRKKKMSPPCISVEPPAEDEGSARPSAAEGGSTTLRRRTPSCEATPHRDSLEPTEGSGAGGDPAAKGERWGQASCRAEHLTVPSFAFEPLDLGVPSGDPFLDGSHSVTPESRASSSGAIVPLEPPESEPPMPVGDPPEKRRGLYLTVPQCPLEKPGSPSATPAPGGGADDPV
Sequence of Nonstructural protein 1 (Q194T2 whole entry): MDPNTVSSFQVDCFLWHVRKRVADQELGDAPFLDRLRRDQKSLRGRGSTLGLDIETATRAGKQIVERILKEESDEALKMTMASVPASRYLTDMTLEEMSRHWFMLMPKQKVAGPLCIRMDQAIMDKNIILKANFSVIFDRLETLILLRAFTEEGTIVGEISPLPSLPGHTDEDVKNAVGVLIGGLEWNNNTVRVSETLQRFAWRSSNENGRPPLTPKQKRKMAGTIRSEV

In the case of `Cc1ccccc1N1C(=O)/C(=C/NNC(=O)c2ccccc2O)C(=O)NC1=S`, the IC50 at Aminopeptidase N is 11.5 µM (active); on SUMO-activating enzyme [2], 25.7 µM (active); on SUMO-activating enzyme [5] it was 42.4 µM (active); on Nonstructural protein 1, 13.4 µM (active). Besides, the EC50 in experiment [1] is 21.2 µM (active); in [3], 23.5 µM (active); in [4] it was 30.8 µM (active).
`Cc1cc(C)n(-c2ccc3cccc(NS(C)(=O)=O)c3n2)n1`: the EC50 in experiment [6] was 0.137 µM (active); in the experiment “cells [7]”, > 350 µM (not active); in experiment [8] it was 7.99 µM (active); in [9], 0.159 µM (active); in experiment [10], 1.07 µM (active); in the experiment “cells [11]” it was > 350 µM (not active). Further, in experiment [12], the EC50 is 0.68 µM (active). The CC50 in experiment [13] is 12.5 µM (active); in [14], 19.3 µM (active); in experiment [15], 3.8 µM (active). The values for the IC50 in the experiment “cells [16]” and in the experiment with H9c2 were > 25 µM (active) and > 79 µM (inactive), respectively. For the same compound, the AC50 in experiment [17] was 1.32 µM (active); in [18], 6.2 µM (active); in experiment [19], 0.759 µM (active).
With `Clc1ccc2c(NCCNC3CCCCC3)ccnc2c1`, the IC50 in experiment [20] was > 150 µM (active).
For `O=C(COc1ccc(F)cc1Cl)Nc1nnc(-c2ccc3c(c2)OCCO3)o1`, in [21], the EC50 was 2.6 µM (active).
`CCc1ccccc1OCC(=O)Nc1nc(-c2cccnc2)cs1`: the EC50 is 0.428 µM (active) in experiment [22], 1.14 µM (active) in experiment [10] and 3.28 µM (active) in the experiment with Streptococcus. In addition, the IC50 (in [23]; at Beta-galactosidase) was > 66.6 µM (inactive) each time. In the experiment on Vero, the CC50 is > 25 µM (active).
